Assay results as given in ChEMBL document CHEMBL1201861, “Genomics of Drug Sensitity in Cancer screening data, Wellcome Trust Sanger Institute”.
pIC50: −log10 of the molar value.

Key:
Experiment in all cases: cells
Format in all cases: functional, cell-based
Details in all cases: Homo sapiens
COLO-800 = test system: COLO-800;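 further: growth inhibition of COLO-800 cells, read out with a cell viability assay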
Description: SANGER: Inhibition of human COLO-800 cell growth in a cell viability assay.

COLO-824 = test system: COLO-824
Description: SANGER: Inhibition of human COLO-824 cell growth in a cell viability assay.

COLO-829 = test system: COLO-829
Description: SANGER: Inhibition of human COLO-829 cell growth in a cell viability assay.

CTB-1 = test system: CTB-1
Description: SANGER: Inhibition of human CTB-1 cell growth in a cell viability assay.

CTV-1 = test system: CTV-1;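 further: growth inhibition of the cell line, read out with a cell viability assay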
Description: SANGER: Inhibition of human CTV-1 cell growth in a cell viability assay.

CW-2 = test system: CW-2;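 further: growth inhibition of CW-2 cells, read out by a cell viability assay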
Description: SANGER: Inhibition of human CW-2 cell growth in a cell viability assay.

D-502MG = test system: D-502MG
Description: SANGER: Inhibition of human D-502MG cell growth in a cell viability assay.

DJM-1 = test system: DJM-1;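 further: growth inhibition of human DJM-1 cells, read out by a cell viability assay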
Description: SANGER: Inhibition of human DJM-1 cell growth in a cell viability assay.

DMS-79 = test system: DMS-79;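 further: growth inhibition measured with a cell viability assay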
Description: SANGER: Inhibition of human DMS-79 cell growth in a cell viability assay.

DU-4475 = test system: DU-4475
Description: SANGER: Inhibition of human DU-4475 cell growth in a cell viability assay.

ES5 = test system: ES5;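 further: growth inhibition of human ES5 cells, read out by a cell viability assay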
Description: SANGER: Inhibition of human ES5 cell growth in a cell viability assay.

ES7 = test system: ES7;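 further: growth inhibition of cultured human ES7 cells, read out as cell viability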
Description: SANGER: Inhibition of human ES7 cell growth in a cell viability assay.

ETK-1 = test system: ETK-1;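 further: growth inhibition of human ETK-1 cells, read out with a cell viability assay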
Description: SANGER: Inhibition of human ETK-1 cell growth in a cell viability assay.

EW-3 = test system: EW-3;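 further: cell viability assay read-out, IC50 reflects inhibition of growth of the EW-3 cells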
Description: SANGER: Inhibition of human EW-3 cell growth in a cell viability assay.

HAL-01 = test system: HAL-01;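 further: growth inhibition of human HAL-01 cells, read out with a cell viability assay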
Description: SANGER: Inhibition of human HAL-01 cell growth in a cell viability assay.

HCC2218 = test system: HCC2218;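 further: cell viability assay read-out, with IC50 given as the concentration that inhibits growth of the cell line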
Description: SANGER: Inhibition of human HCC2218 cell growth in a cell viability assay.

HT = test system: HT
Description: SANGER: Inhibition of human HT cell growth in a cell viability assay.

IST-MEL1 = test system: IST-MEL1;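 further: growth inhibition of the cell line, read out with a cell viability assay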
Description: SANGER: Inhibition of human IST-MEL1 cell growth in a cell viability assay.

K562 = test system: K562
Description: SANGER: Inhibition of human K-562 cell growth in a cell viability assay.

KARPAS-299 = test system: KARPAS-299
Description: SANGER: Inhibition of human KARPAS-299 cell growth in a cell viability assay.

KG-1 = test system: KG-1;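 further: growth inhibition of KG-1 cells, read out by a cell viability assay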
Description: SANGER: Inhibition of human KG-1 cell growth in a cell viability assay.

KGN = test system: KGN;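 further: growth inhibition of KGN cells, read out with a cell viability assay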
Description: SANGER: Inhibition of human KGN cell growth in a cell viability assay.

LB2241-RCC = test system: LB2241-RCC;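 further: cell viability assay measuring how strongly the cultured human renal carcinoma line is prevented from growing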
Description: SANGER: Inhibition of human LB2241-RCC cell growth in a cell viability assay.

LB771-HNC = test system: LB771-HNC;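 further: growth inhibition of LB771-HNC human cells, read out with a cell viability assay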
Description: SANGER: Inhibition of human LB771-HNC cell growth in a cell viability assay.

LC-2-ad = test system: LC-2-ad;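 further: growth inhibition of human LC-2-ad cells, read out with a cell viability assay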
Description: SANGER: Inhibition of human LC-2-ad cell growth in a cell viability assay.

LOX IMVI = test system: LOX IMVI
Description: SANGER: Inhibition of human LOXIMVI cell growth in a cell viability assay.

LS-513 = test system: LS-513
Description: SANGER: Inhibition of human LS-513 cell growth in a cell viability assay.

LU-139 = test system: LU-139
Description: SANGER: Inhibition of human LU-139 cell growth in a cell viability assay.

LXF-289 cell line = test system: LXF-289 cell line
Description: SANGER: Inhibition of human LXF-289 cell growth in a cell viability assay.

MFH-ino = test system: MFH-ino;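 further: growth inhibition of human MFH-ino cells, read out by a cell viability assay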
Description: SANGER: Inhibition of human MFH-ino cell growth in a cell viability assay.

MFM-223 = test system: MFM-223
Description: SANGER: Inhibition of human MFM-223 cell growth in a cell viability assay.

MPP-89 = test system: MPP-89;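 further: growth inhibition of human MPP-89 cells, read out with a cell viability assay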
Description: SANGER: Inhibition of human MPP-89 cell growth in a cell viability assay.

NB6 = test system: NB6;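 further: growth inhibition of NB6 cells, read out by a cell viability assay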
Description: SANGER: Inhibition of human NB6 cell growth in a cell viability assay.

NCI-H1092 = test system: NCI-H1092;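 further: cell growth inhibition measured with a cell viability assay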
Description: SANGER: Inhibition of human NCI-H1092 cell growth in a cell viability assay.

NCI-H2126 = test system: NCI-H2126;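 further: growth inhibition of the cancer cell line, determined with a cell viability readout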
Description: SANGER: Inhibition of human NCI-H2126 cell growth in a cell viability assay.

NCI-H226 = test system: NCI-H226;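 further: cell viability read-out used to gauge growth inhibition of the cells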
Description: SANGER: Inhibition of human NCI-H226 cell growth in a cell viability assay.

NCI-H446 = test system: NCI-H446;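 further: growth inhibition of NCI-H446 cells determined by a cell viability assay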
Description: SANGER: Inhibition of human NCI-H446 cell growth in a cell viability assay.

NCI-H510A = test system: NCI-H510A;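 further: growth inhibition of NCI-H510A cells, read out with a cell viability assay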
Description: SANGER: Inhibition of human NCI-H510A cell growth in a cell viability assay.

NCI-H69 = test system: NCI-H69;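 further: growth inhibition of the cell line, read out with a cell viability assay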
Description: SANGER: Inhibition of human NCI-H69 cell growth in a cell viability assay.

NCI-H82 = test system: NCI-H82;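 further: growth inhibition of NCI-H82 cells, measured with a cell viability readout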
Description: SANGER: Inhibition of human NCI-H82 cell growth in a cell viability assay.

NKM-1 = test system: NKM-1;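 further: growth inhibition of NKM-1 cells, read out with a cell viability assay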
Description: SANGER: Inhibition of human NKM-1 cell growth in a cell viability assay.

NOMO-1 = test system: NOMO-1;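 further: growth inhibition of human NOMO-1 cells measured by a cell viability assay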
Description: SANGER: Inhibition of human NOMO-1 cell growth in a cell viability assay.

NOS-1 = test system: NOS-1;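 further: growth inhibition of the human NOS-1 cell line, read out with a cell viability assay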
Description: SANGER: Inhibition of human NOS-1 cell growth in a cell viability assay.

OS-RC-2 = test system: OS-RC-2;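 further: growth inhibition of human OS-RC-2 cells, measured by a cell viability assay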
Description: SANGER: Inhibition of human OS-RC-2 cell growth in a cell viability assay.

PSN1 = test system: PSN1;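 further: suppression of growth of human PSN1 cells, read out by a cell viability assay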
Description: SANGER: Inhibition of human PSN1 cell growth in a cell viability assay.

RXF 393 = test system: RXF 393;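 further: growth inhibition of human RXF 393 cells, read out with a cell viability assay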
Description: SANGER: Inhibition of human RXF393 cell growth in a cell viability assay.

SCH = test system: SCH;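 further: growth inhibition of human SCH cells, read out in a cell viability assay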
Description: SANGER: Inhibition of human SCH cell growth in a cell viability assay.

SK-MEL-2 = test system: SK-MEL-2;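 further: growth inhibition of human SK-MEL-2 cells measured with a cell viability assay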
Description: SANGER: Inhibition of human SK-MEL-2 cell growth in a cell viability assay.

SK-UT-1 = test system: SK-UT-1;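 further: growth inhibition of SK-UT-1 cells, measured by a cell viability assay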
Description: SANGER: Inhibition of human SK-UT-1 cell growth in a cell viability assay.

SW684 = test system: SW684;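 further: growth inhibition of human SW684 cells, measured by a cell viability assay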
Description: SANGER: Inhibition of human SW684 cell growth in a cell viability assay.

SW872 = test system: SW872;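 further: growth inhibition of SW872 cells, read out by a viability assay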
Description: SANGER: Inhibition of human SW872 cell growth in a cell viability assay.

SW 954 = test system: SW 954;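 further: growth inhibition of SW954 human cancer cells, read out as cell viability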
Description: SANGER: Inhibition of human SW954 cell growth in a cell viability assay.

TE-1 = test system: TE-1;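 further: growth inhibition of the human TE-1 cell line, read out with a cell viability assay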
Description: SANGER: Inhibition of human TE-1 cell growth in a cell viability assay.

A3-KAW = test system: A3-KAW;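 further: growth inhibition of human A3-KAW cells, read out with a cell viability assay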
Description: SANGER: Inhibition of human A3-KAW cell growth in a cell viability assay.

A4-Fuk = test system: A4-Fuk;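 further: growth inhibition of A4-Fuk cells, read out by a cell viability assay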
Description: SANGER: Inhibition of human A4-Fuk cell growth in a cell viability assay.

ACN = test system: ACN;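 further: growth inhibition of the human ACN cell line, read out via cell viability testing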
Description: SANGER: Inhibition of human ACN cell growth in a cell viability assay.

BB49-HNC = test system: BB49-HNC;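 further: cell viability assay read-out, reported as inhibition of BB49-HNC cell growth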
Description: SANGER: Inhibition of human BB49-HNC cell growth in a cell viability assay.

BE-13 = test system: BE-13;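 further: growth inhibition of human BE-13 cells, measured with a cell viability assay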
Description: SANGER: Inhibition of human BE-13 cell growth in a cell viability assay.

BV-173 = test system: BV-173
Description: SANGER: Inhibition of human BV-173 cell growth in a cell viability assay.

TE-11 = test system: TE-11;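 further: growth inhibition of human TE-11 cells, read out by a cell viability assay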
Description: SANGER: Inhibition of human TE-11 cell growth in a cell viability assay.

TE-5 = test system: TE-5;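 further: inhibition of cell growth, read out by a cell viability assay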
Description: SANGER: Inhibition of human TE-5 cell growth in a cell viability assay.

TE-8 = test system: TE-8
Description: SANGER: Inhibition of human TE-8 cell growth in a cell viability assay.

TE-9 = test system: TE-9
Description: SANGER: Inhibition of human TE-9 cell growth in a cell viability assay.

TGBC1TKB = test system: TGBC1TKB
Description: SANGER: Inhibition of human TGBC1TKB cell growth in a cell viability assay.

VA-ES-BJ = test system: VA-ES-BJ
Description: SANGER: Inhibition of human VA-ES-BJ cell growth in a cell viability assay.

no-10 = test system: no-10
Description: SANGER: Inhibition of human no-10 cell growth in a cell viability assay.

Question: With `CC(C)=CC[C@@H](O)C1=CC(=O)c2c(O)ccc(O)c2C1=O` [SHIKONIN] as the compound, how does the pIC50 (COLO-800) read?
Answer: The pIC50 was less than 4.80.

Question: What about the pIC50 (COLO-824) of the same compound?
Answer: The pIC50 was 6.15.

Question: And the pIC50 (COLO-829)?
Answer: Its pIC50 is 6.18.

Question: What about the pIC50 (CTB-1) of the same compound?
Answer: The pIC50 was 6.07.

Question: What about the pIC50 (CTV-1) of the same compound?
Answer: The pIC50 was less than 4.80.

Question: And the pIC50 (CW-2)?
Answer: The pIC50 was less than 4.80.

Question: What about the pIC50 (D-502MG) of the same compound?
Answer: The pIC50 was 5.36.

Question: And the pIC50 (DJM-1)?
Answer: Its pIC50 is 5.19.

Question: And the pIC50 (DMS-79)?
Answer: Its pIC50 is less than 4.80.

Question: What about the pIC50 (DU-4475) of the same compound?
Answer: Its pIC50 is 6.75.

Question: And the pIC50 (ES5)?
Answer: The pIC50 was 5.58.

Question: What about the pIC50 (ES7) of the same compound?
Answer: Its pIC50 is 6.26.

Question: And the pIC50 (ETK-1)?
Answer: The pIC50 was 5.61.

Question: What about the pIC50 (EW-3) of the same compound?
Answer: Its pIC50 is 6.14.

Question: What about the pIC50 (HAL-01) of the same compound?
Answer: Its pIC50 is 6.71.

Question: What about the pIC50 (HCC2218) of the same compound?
Answer: Its pIC50 is 6.30.

Question: And the pIC50 (HT)?
Answer: The pIC50 was 5.96.

Question: And the pIC50 (IST-MEL1)?
Answer: The pIC50 was 4.83.

Question: What about the pIC50 (K562) of the same compound?
Answer: The pIC50 was less than 4.80.

Question: What about the pIC50 (KARPAS-299) of the same compound?
Answer: The pIC50 was 6.10.

Question: What about the pIC50 (KG-1) of the same compound?
Answer: Its pIC50 is 5.80.

Question: And the pIC50 (KGN)?
Answer: Its pIC50 is 5.88.

Question: And the pIC50 (LB2241-RCC)?
Answer: Its pIC50 is 5.89.

Question: What about the pIC50 (LB771-HNC) of the same compound?
Answer: The pIC50 was less than 4.80.

Question: And the pIC50 (LC-2-ad)?
Answer: The pIC50 was 6.02.

Question: What about the pIC50 (LOX IMVI) of the same compound?
Answer: Its pIC50 is 6.39.

Question: What about the pIC50 (LS-513) of the same compound?
Answer: Its pIC50 is 5.83.

Question: And the pIC50 (LU-139)?
Answer: Its pIC50 is 5.20.

Question: And the pIC50 (LXF-289 cell line)?
Answer: Its pIC50 is 5.49.

Question: And the pIC50 (MFH-ino)?
Answer: Its pIC50 is 6.06.

Question: What about the pIC50 (MFM-223) of the same compound?
Answer: The pIC50 was 6.05.

Question: What about the pIC50 (MPP-89) of the same compound?
Answer: Its pIC50 is 6.07.

Question: And the pIC50 (NB6)?
Answer: The pIC50 was 6.34.

Question: And the pIC50 (NCI-H1092)?
Answer: Its pIC50 is 5.86.

Question: What about the pIC50 (NCI-H2126) of the same compound?
Answer: The pIC50 was 4.81.

Question: And the pIC50 (NCI-H226)?
Answer: Its pIC50 is 6.19.

Question: What about the pIC50 (NCI-H446) of the same compound?
Answer: The pIC50 was less than 4.80.

Question: And the pIC50 (NCI-H510A)?
Answer: Its pIC50 is less than 4.80.

Question: And the pIC50 (NCI-H69)?
Answer: Its pIC50 is 5.17.

Question: What about the pIC50 (NCI-H82) of the same compound?
Answer: Its pIC50 is less than 4.80.

Question: What about the pIC50 (NKM-1) of the same compound?
Answer: Its pIC50 is 6.99.

Question: And the pIC50 (NOMO-1)?
Answer: Its pIC50 is 5.94.

Question: What about the pIC50 (NOS-1) of the same compound?
Answer: Its pIC50 is less than 4.80.

Question: And the pIC50 (OS-RC-2)?
Answer: The pIC50 was 6.50.

Question: And the pIC50 (PSN1)?
Answer: The pIC50 was less than 4.80.

Question: What about the pIC50 (RXF 393) of the same compound?
Answer: Its pIC50 is 6.13.

Question: What about the pIC50 (SCH) of the same compound?
Answer: Its pIC50 is less than 4.80.

Question: What about the pIC50 (SK-MEL-2) of the same compound?
Answer: The pIC50 was 5.20.

Question: What about the pIC50 (SK-UT-1) of the same compound?
Answer: Its pIC50 is greater than 7.20.

Question: What about the pIC50 (SW684) of the same compound?
Answer: Its pIC50 is 6.11.

Question: And the pIC50 (SW872)?
Answer: Its pIC50 is 6.43.

Question: What about the pIC50 (SW 954) of the same compound?
Answer: Its pIC50 is 6.33.

Question: And the pIC50 (TE-1)?
Answer: The pIC50 was 4.80.

Question: What about the pIC50 (A3-KAW) of the same compound?
Answer: Its pIC50 is 5.67.

Question: What about the pIC50 (A4-Fuk) of the same compound?
Answer: The pIC50 was 6.60.

Question: And the pIC50 (ACN)?
Answer: The pIC50 was 6.04.

Question: And the pIC50 (BB49-HNC)?
Answer: The pIC50 was less than 4.80.

Question: What about the pIC50 (BE-13) of the same compound?
Answer: Its pIC50 is 5.92.

Question: And the pIC50 (BV-173)?
Answer: The pIC50 was 6.36.

Question: And the pIC50 (TE-11)?
Answer: Its pIC50 is 5.40.

Question: What about the pIC50 (TE-5) of the same compound?
Answer: Its pIC50 is 6.00.

Question: And the pIC50 (TE-8)?
Answer: The pIC50 was 5.89.

Question: What about the pIC50 (TE-9) of the same compound?
Answer: The pIC50 was 6.39.

Question: What about the pIC50 (TGBC1TKB) of the same compound?
Answer: Its pIC50 is 5.85.

Question: What about the pIC50 (VA-ES-BJ) of the same compound?
Answer: Its pIC50 is 6.40.

Question: And the pIC50 (no-10)?
Answer: Its pIC50 is 6.54.

Question: Which results are given for `CCNC(=O)c1noc(-c2cc(C(C)C)c(O)cc2O)c1-c1ccc(CN2CCOCC2)cc1` [LUMINESPIB]?
Answer: pIC50 (COLO-800): < 6.59; pIC50 (COLO-824): 6.96; pIC50 (COLO-829): < 6.59; pIC50 (CTB-1): 6.87; pIC50 (CTV-1): 7.39; pIC50 (CW-2): < 6.59; pIC50 (D-502MG): < 6.59; pIC50 (DJM-1): 7.37; pIC50 (DMS-79): < 6.59; pIC50 (DU-4475): 7.67; pIC50 (ES5): < 6.59; pIC50 (ES7): 7.47; pIC50 (ETK-1): 7.55; pIC50 (EW-3): 6.76; pIC50 (HAL-01): < 6.59; pIC50 (HCC2218): 7.00; pIC50 (HT): 6.65; pIC50 (IST-MEL1): 8.07; pIC50 (K562): 7.27; pIC50 (KARPAS-299): 6.64; pIC50 (KG-1): < 6.59; pIC50 (KGN): 8.15; pIC50 (LB2241-RCC): 7.44; pIC50 (LB771-HNC): < 6.59; pIC50 (LC-2-ad): 7.86; pIC50 (LOX IMVI): 7.63; pIC50 (LS-513): 7.13; pIC50 (LU-139): < 6.59; pIC50 (LXF-289 cell line): 7.57; pIC50 (MFH-ino): 7.89; pIC50 (MFM-223): < 6.59; pIC50 (MPP-89): 7.01; pIC50 (NB6): < 6.59; pIC50 (NCI-H1092): 6.85; pIC50 (NCI-H2126): < 6.59; pIC50 (NCI-H226): 7.22; pIC50 (NCI-H446): < 6.59; pIC50 (NCI-H510A): < 6.59; pIC50 (NCI-H69): < 6.59; pIC50 (NCI-H82): < 6.59; pIC50 (NKM-1): 8.26; pIC50 (NOMO-1): 7.14; pIC50 (NOS-1): 7.80; pIC50 (OS-RC-2): 7.47; pIC50 (PSN1): 8.50; pIC50 (RXF 393): 8.07; pIC50 (SCH): < 6.59; pIC50 (SK-MEL-2): 6.90; pIC50 (SK-UT-1): 7.49; pIC50 (SW684): < 6.59; pIC50 (SW872): 7.49; pIC50 (SW 954): 7.97; pIC50 (TE-1): 7.80; pIC50 (A3-KAW): 6.64; pIC50 (A4-Fuk): 7.77; pIC50 (ACN): 7.78; pIC50 (BB49-HNC): 7.97; pIC50 (BE-13): < 6.59; pIC50 (BV-173): 7.47; pIC50 (TE-11): 6.70; pIC50 (TE-5): < 6.59; pIC50 (TE-8): 8.63; pIC50 (TE-9): 7.37; pIC50 (TGBC1TKB): 6.68; pIC50 (VA-ES-BJ): 7.37; pIC50 (no-10): 7.52
